Results: patent publication US20110195910A1, “USE OF TOCOTRIENOL COMPOSITION FOR THE PREVENTION OF CANCER” (DAVOS LIFE SCIENCE PTE. LTD., priority 2008, published 2011)

What was measured:
MDA-MB-231 cells = experiment: Matrigel-invasion assay, MDA-MB-231 cells; format: cell-based, human; conditions: MDA-MB-231, 24 hrs
Protocol: 1.1.4 Matrigel-invasion assay—Matrigel-invasion assay was performed according to a previously published method with modifications. Briefly, cells were pre-incubated in a serum-free RPMI 1640 medium with or without γ-T3 isomers for 24 hrs. Cells (2.5×10^5) resuspended in 500 μl of serum-free RPMI 1640 containing 0.1% bovine serum albumin (BSA) were then added to the upper chamber of a 8 μm pore size insert (Millipore, Bedford, Mass.) manually coated with Matrigel (0.5 mg/ml) (BD Bioscience, Bedford, Mass.). Five hundred μl of invasion buffer containing fibronectin (10 μg/ml) and RPMI 1640 supplemented with 10% FCS were added in the lower chamber as a chemo-attractant. Cells were incubated at 37° C. for 24 hrs in 5% CO2 humidified conditions. At the end of incubation period, inserts were stained with Diff-Quick staining solution (Fischer Scientific). Non-invaded cells on the inside of the insert were scraped off with a cotton swab. Cell invasions were then examined by a phase-contrast microscope. The invaded cells were extracted using extraction buffer (Millipore, Bedford, Mass.) and the cell number was estimated based on absorbance at 595 nm.
3.1.7 Flow cytometry was carried out as described above under item 1.1.3. Matrigel-invasion assay was carried out as described above under item 1.1.4. Western blotting was carried out as described above under item 1.1.5.

DU145 prostaspheres = experiment: Treatment of pre-formed CSC-enriched DU145 prostaspheres; format: cell-based; conditions: 48 hrs
Protocol: (A) CSC enriched prostaspheres were formed by maintaining DU145 cells in non-adherent culture supplemented with serum replacement medium for 14 days. The prostaspheres were then treated with either vehicle, γ-T3 (10, 20 μg/ml) or Docetaxel (Doc, 40 ng/ml) for 48 hrs. Spheroids were counted under microscope before and after treatment. Results were presented as mean % change in spheroid number to control±s.d. Note that spheroids were highly sensitive to γ-T3 treatment but resistant to high dose of Docetaxel. (B) Images of prostaspheres after 48 hrs treatment with vehicle, 40 ng/ml of Docetaxel and 10 μg/ml of γ-T3.
5.1.7 Spheroid formation assay—Spheroid formation assay was performed with a protocol modified from previous study (Folkins C, p3560). Briefly, cells were first trypsinized, washed with 1× PBS and resuspended in DMEM F12 medium. Two hundred cells were added into each well of a 24-well-plate pre-coated with polyHEMA (Sigma, St. Louis, Mo.). Cells will be grown in DMEM/F12 mem (Invitrogen, Carlsbad, Calif.) supplemented with 4 μg/mL insulin (Sigma, St. Louis, Mo.), B27 (Invitrogen, Carlsbad, Calif.), 20 ng/mL EGF (Sigma, St. Louis, Mo.), and 20 ng/mL basic FGF (Invitrogen, Carlsbad, Calif.). Fresh medium with the above supplements was added every day. γ-T3 was added at indicated time points and the number of spheroids was counted at day 14 of the assay or at the end of the treatment. Each experiment was repeated in triplicates and each data point represented the mean and standard derivation.

**Q.** Which results are given for `CC(C)=CCC/C(C)=C/CC/C(C)=C/CCC1(C)CCc2cc(O)c(C)c(C)c2O1` (stereo not drawn) [γ-T3, 7,8-dimethyltocotrienol]?
**A.** invasion capability compared to untreated control (MDA-MB-231 cells): at least 2 -time lower; decrease of spheroid number (DU145 prostaspheres; 10 μg/ml): 70%; decrease of spheroid number (DU145 prostaspheres; 20 μg/ml): 76%
